Patent US6455259B2, “Methods for detecting, selecting and cloning agents that degrade or promote degradation of DNA” (priority 1998, dated 2002)

Columns and labels:
E. coli strain MC1061 [1] = assay: Cell viability after bleomycin treatment; assay type: cell-based; conditions: 10 μg/ml bleomycin, 60 minutes, 32 C, Luria Broth plus 0.2% glucose
Method: (§1) In this example, a T4 denA mutant phage is complemented with an antibiotic known to cause single strand breaks in DNA, bleomycin. In this example, the production of any viable progeny phage above the background will be evidence of complementation. E. coli strain MC1061, growing at 32∞ C in Luria Broth plus 0.2% glucose was treated for 60 minutes with 10 μg/ml of bleomycin, which was then removed by centrifuging the cells and re-suspending them in an equal volume of the same media. Under these treatment conditions, cell viability is reduced to about 40-50% of that at the beginning of the treatment. The cells are then allowed to grow for various amounts of time at 32∞ C. in the absence of bleomycin, at which times HU is added to 200 mM.

E. coli strain MC1061 [2] = assay: Complementation of T4 denA mutant phage by bleomycin: progeny phage production; assay type: cell-based
Method: as §1
Phage mutant in both the denA and denB genes is added five minutes later. Unadsorbed input phage are eliminated by treating the infected cultures with anti-T4 sera added 15-20 minutes after infection. This anti-T4 sera treatment to eliminate unadsorbed input phage allows detection of a lower level of progeny phage production. However, the anti-T4 sera must be removed or it will also inactivate progeny phage. This was done by centrifuging the infected cultures 50 minutes after infection, washing the pellets with one-tenth volume of media, centrifuging again, re-suspending the culture in one volume of media and immediately causing lysis of the productive cells by the addition of chloroform.
Progeny phage production was assayed by standard methods. A control infection was also done on cells given no bleomycin treatment.

## bleomycin
E. coli strain MC1061 [1]
  cell viability, relative to that at the beginning of the treatment: 40-50%
E. coli strain MC1061 [2]; outgrowth 0 minutes
  factor increase of progeny titre over control (no Bleomycin): 1300
E. coli strain MC1061 [2]; outgrowth 20 minutes
  factor increase of progeny titre over control (no Bleomycin): 13000
E. coli strain MC1061 [2]; outgrowth 40 minutes
  factor increase of progeny titre over control (no Bleomycin): 24000
E. coli strain MC1061 [2]; outgrowth 60 minutes
  factor increase of progeny titre over control (no Bleomycin): 45000
